{
  "source": "patent US6541483B2",
  "about": "“Acridone-derived compounds useful as antineoplastic and antiretroviral agents” (The United States of America as represented by the …, priority 1996, dated 2003)",
  "key": {"[1]": {"system": "human monocyte/macrophage cultures", "assay": "toxicity in monocyte/macrophage cultures", "assay_type": "cell-based", "conditions": "human monocyte/macrophage cultures; read-out: Mo/Mφ IC50", "description": "The antiviral properties of the WMC series of compounds were evaluated. First, all compounds were tested for their ability to inhibit HIV-1 replication in cell culture using the XTT cytoprotection assay. This assay measures the concentration-dependent capacity of compounds to protect CEM-SS cells from the cytopathic effects of HIV-1. […] Thus, temacrazine was the most efficacious compound in the XTT cytoprotection assay. This conclusion was also reached when the compounds were tested for anti-HIV-1 activity against HIV-1ADA in human monocyte/macrophage cultures (Table 1)."}, "[2]": {"molecular_target": "HIV-1 reverse transcriptase (Human immunodeficiency virus type 1 group M subtype B, UniProt P04585)", "assay": "reverse transcriptase enzyme activity", "assay_type": "biochemical", "source_text": "(§1) Based on the findings thus far our efforts have focused on biological assays of the temacrazine congener."}, "[3]": {"molecular_target": "HIV-1 protease (Human immunodeficiency virus type 1 group M subtype B, UniProt P04585)", "assay": "protease activity, HPLC-based assay", "assay_type": "biochemical"}, "[4]": {"system": "HIV-1 in ACH-2 cells", "assay": "TNFα stimulated latently infected ACH-2 cells, virus production", "assay_type": "cell-based", "conditions": "Human immunodeficiency virus 1, 72 h, read-out: EC50, inhibition of HIV-1 virus replication (virion-associated p24)", "description": "In a similar study, cells were either treated for 24h with TNFα followed by the addition of temacrazine, or temacrazine and TNFα were added simultaneously, or temacrazine was added 24 h […] TNFα addition. After TNFα induction and temacrazine treatment, cultures were continued for 72 h after which virion-associated p24 and cell viability (XTT dye reduction) were measured."}, "[5]": {"system": "HIV-1 LTR-directed chloramphenicol acetyltransferase (CAT) activity", "assay": "LTR-directed CAT activity in BF-24 cells", "assay_type": "cell-based", "conditions": "24 h, temacrazine up to 5 μM", "source_text": "Initiation and regulation of HIV-1 transcription requires a complex series of interactions with cellular transcription factors, such as NFkB, SP-1 and AP-1, and the participation of cellular factors in the transcriptional complex. In addition, the post-integrative model used here requires TNFα stimulated U1 and ACH-2 cells, this model requires not only the participation of the NFkB transcriptional complex, and also components of the TNFα signaling pathway. In order to rule out that temacrazine was non-specifically effecting transcription or down-regulating replication by interfering with the TNFα signal pathway, LTR-directed chloramphenicol acetyltransferase (CAT) activity was measured in BF-24 cells. BF-24 cells are derived from the THP-1 monocytic cell line and carry a stably integrated CAT gene under the transcriptional control of the HIV-1 LTR (S. Schwartz, et al., Proc. Natl. Acad. Sci. USA 86:7200 (1989); B. K. Felber, et al., Science 239:184 (1988)). The LTR in this monocytic cell line is inducible by IL-6, PMA and TNFα, and produces enzymatically active chloramphenicol transferase (“CAT”). […]\nCAT activity was determined using a fluorescent Bodipy conjugated chloramphenicol after 18 h of reaction with 50 μg of protein extract containing Acetyl CoA."}, "[6]": {"system": "CEM-SS cells", "assay": "3H precursor incorporation in CEM-SS cells", "assay_type": "cell-based"}, "[7]": {"system": "HIV-1RF", "assay": "nude mouse hollow fiber model of HIV-1 replication", "assay_type": "in vivo, nude mice", "source_text": "The novel mechanism of action of temacrazine and its broad range of activity against HIV-1 and its high therapeutic indexes led us to assess its in vivo and anti-viral properties in a nude mouse hollow fiber model of HIV-1 replication. Briefly, CEM-SS cells are infected with HIV-1RF and placed into hollow fibers and implanted intraperitoneal or subcutaneously into nude mice. […] Similarly, mice are being treated by oral and intravenous administration of temacrazine. Peritoneal washes and serum samples were collected and p24 expression determined by antigen capture. Intraperitoneal administration of temacrazine reduced the amount of detectable p24 in peritoneal washes by 5 to 10 fold independently of the dosage schedule. […] Thus, temacrazine reduces HIV-1 replication in vivo."}, "[8]": {"system": "HIV-1 virus", "assay": "direct treatment of HIV-1 virus, infection of CEM cells", "assay_type": "cell-based", "description": "As a result of these preliminary data, additional experiments were carried out to establish the antiviral activity in other cell lines, using a variety of protocols. The preliminary experiments in lymphocytes were confirmed using infected macrophages. Much more extensive experiments were carried out in HIV-1-infected CEM SS leukemia cells. […] However, two derivatives were found which had low antileukemic activity while maintaining high antiviral activity. […] This gives a therapeutic index of more than 3 orders of magnitude. The corresponding therapeutic index for WMC50 is about 100-200, which is quite acceptable. Additional experiments were carried out on WMC-70. […] Further, WMC-70 appears to affect post-transcription events in the virus. […] While the inhibition of integration appears to be the principal mechanism by which this compound exerts its antiviral activity, there are perhaps other mechanisms which are also involved in the therapeutic action of this drug, and by extension, of other antiviral drugs of this class."}, "[9]": {"molecular_target": "HIV-1 integrase (Human immunodeficiency virus type 1 group M subtype B, UniProt P04585)", "assay": "3'-processing and strand transfer with recombinant integrase", "assay_type": "biochemical", "parameters": "in vitro assay using purified oligomers and recombinant HIV-1 integrase", "source_text": "as §1"}, "[10]": {"conditions": "8.5 mg/kg q8h intraperitoneally"}, "[11]": {"conditions": "12.5 mg/kg q12h intraperitoneally"}, "[12]": {"conditions": "25 mg/kg q24h intraperitoneally"}},
  "note": "Read-outs that look alike come from different tables or passages of the source.",
  "data": [
    {"smiles": "O=c1c2ccccc2n2nnc3ccc(NCCCN4CCN(CCCNc5ccc6nnn7c8ccccc8c(=O)c5c67)CC4)c1c32", "note": "[temacrazine]", "values": [
      {"measurement": "IC50", "setting": "[1]", "result": 10000, "unit": "nM"},
      {"measurement": "IC50", "setting": "[2]", "result": "> 100000", "unit": "nM"},
      {"measurement": "inhibition of reverse transcriptase", "setting": "[2]", "result": "did not inhibit"},
      {"measurement": "IC50", "setting": "[2]; read-out: I50 RT Enzyme Activity, rAdT Template/primer", "result": "> 100000", "unit": "nM"},
      {"measurement": "IC50", "setting": "[2]; read-out: I50 RT Enzyme Activity, rCdG Template/primer", "result": "> 100000", "unit": "nM"},
      {"measurement": "inhibition of HIV protease", "setting": "[3]", "result": "did not inhibit"},
      {"measurement": "EC50", "setting": "[4]", "result": "10 to 100", "unit": "nM"},
      {"measurement": "CAT induction by TNFα", "setting": "[5]", "result": "did not significantly alter CAT induction"},
      {"measurement": "incorporation of 3H Leucine (protein metabolism)", "setting": "[6]", "result": "no effect"},
      {"measurement": "incorporation of 3H Thymidine (DNA replication)", "setting": "[6]", "result": "no effect"},
      {"measurement": "incorporation of 3H Uridine (RNA production)", "setting": "[6]; CEM-SS cells", "result": "no effect"},
      {"measurement": "Peritoneal Wash p24, mean", "setting": "[7]; [10]", "result": 460, "unit": "pg p24"},
      {"measurement": "Serum p24, mean", "setting": "[7]; [10]", "result": 1790, "unit": "pg p24"},
      {"measurement": "Peritoneal Wash p24, mean", "setting": "[7]; [11]", "result": 190, "unit": "pg p24"},
      {"measurement": "Serum p24, mean", "setting": "[7]; [11]", "result": 1863, "unit": "pg p24"},
      {"measurement": "Peritoneal Wash p24, mean", "setting": "[7]; [12]", "result": 593, "unit": "pg p24"},
      {"measurement": "Serum p24, mean", "setting": "[7]; [12]", "result": 2030, "unit": "pg p24"},
      {"measurement": "p24 in the serum", "setting": "[7]; intraperitoneal, total 25 mg/kg per day for 6 days", "result": "reduced the amount of p24 in the serum"},
      {"measurement": "reduction of detectable p24 in peritoneal washes", "setting": "[7]; intraperitoneal, total 25 mg/kg per day for 6 days, any schedule", "result": "5 to 10", "unit": "fold"},
      {"measurement": "infectivity of drug-treated HIV-1 virus", "setting": "[8]", "result": "appeared to prevent its ability to infect CEM cells"},
      {"measurement": "IC50", "setting": "[9]", "result": "10 to 100", "unit": "nM"},
      {"measurement": "EC50", "setting": "[9]; read-out: EC50, 3'-processing and strand transfer activity, purified oligomers, recombinant HIV-1 integrase", "result": "10 to 100", "unit": "nM"}
    ]}
  ]
}
